Reference: US20030157159A1, “Prevention and treatment of digestive tract infections” (priority 2002, published 2003)

Experiments:
H. pylori strain #26695 = assay: bactericidal effect of selected terpenes on H. pylori viability; format: cell-based, Helicobacter pylori; design: key: *NG = no growth; **TNTC = Too Numerous To Count; settings: 10^6 cfu, 24 hours
Description: Five terpenes (anethole, carvone, citral, geraniol and b-ionone) were used for this study. […] The H. pylori used was strain #26695 of […], this bacteria is a motile, cag A, vac A cytotoxin-positive gram negative bacteria which colonizes gnotobiotic piglets and indefinitely persists within the gastric microenvironment as a superficial infection of the gastric mucosa and mucus layer. 1) Stock solutions of each terpene with polysorbate-80 were prepared (1.8 ml terpene plus 0.2 ml polysorbate-80. […] 3) A total of 1.0×10^6 bacteria (30 ul) was added to 970 ul terpene dilutions (final volume of 1.0 ml) in loosely capped tubes and incubated for 24 hours at 37° C. with continuous mixing. […] Bacterial colony forming units (cfu) were determined visual (counting) inspection. Recovered bacteria were confirmed to be H. pylori by catalase and urease enzyme activities.

E. coli strain AW574 = assay: single terpene or combination against E. coli growth (O.D.); format: cell-based; settings: single terpene 2 uMol; 24 hours; compared to the control treatment
Description: The objective of this example was to determine an optimum terpene mixture which could have a greater biocidal effect. E. coli strain AW574 was grown in tryptone broth to an exponential growth phase (O.D. between 0.4 and 1.0 at 590 nm). One tenth of this growth was inoculated to 10 ml of tryptone broth following by the addition of individual terpenes or as indicated on table 2; then incubated for 24 hours at 35-37° C. and the O.D. determined in each tube. The concentration of terpenes was 1 or 2 uMol. Each treatment was repeated in triplicate. The results are expressed as percentage bacterial growth as compared to the control treatment. It is observed that the combination of terpenes give better biocidal effect than single terpenes, with geraniol and carvone better than b-ionone.

[1] = system: E. coli strains AW574 or AW405; assay: Lysis of E. coli by terpenes (B-galactosidase/ONPG assay); format: cell-based
From the text: Lysis of the cell membrane was monitored by the determination of galactosidase activity. B-galactosidase is a well-characterized cytosolic enzyme in bacteria. This enzyme is inducible in the presence of isopropyl-1-thiogalactosidase (IPTG) and assayed colorimetricaly with substrate o-nitro-phenyl-B-D-galactoside (ONPG). ONPG is cleaved to release o-nitrophenol with peak absorbance at 420 nm. Since intact E. coli is impermeable to both ONPG and the enzyme, the cells have to be lysed prior to enzymatic assay. Therefore the ability of terpenes to lyse E. coli can be measured with this enzymatic assay and compared to known lysing agents. The procedure used was as follows: E. coli strains AW574 or AW405 were cultured overnight in 10 ml tryptone broth with […] at 35° C. Cells were allowed to growth after an absorbance equal to 0.9 was reached. Cells were harvested, washed with phosphate buffer and resuspended to an absorbance equal to 0.5. One tenth of a ml of the bacteria culture was added to 0.9 ml of buffer, warmed to 30° C. and then 80 ul of terpenes (85% terpenes and 15% polysorbate-80), 80 ul water (background) or 40 ul chloroform plus 40 ul 1% SDS in water (positive control) were added. After the addition of the lysing agents the tubes were mixed for 10 seconds and 0.2 ml of ONPG (4 mg/ml water) was added, then incubated for 5 minutes. The enzyme activity was stopped with 0.5 ml of 1 M sodium carbonate. After being centrifuged for 3 minutes at 1,500×g, supernatant was transferred to cuvettes and read at 420 nm. The relative degree of lysis caused by terpenes was calculated as follows:
100×(OD terpenes−OD water)/(OD chloroform−OD water)

Traveler's Diarrhea = settings: Ericsson, Charles (1998); cited from earlier work
H pylori = settings: in vitro; cited from earlier work
E. coli = settings: cited from earlier work
[2] = final dilution 1:10 of stock (90% terpene plus 10% polysorbate-80)
[3] = final dilution 1:10000 of stock
[4] = final dilution 1:50000 of stock

| Compound | H. pylori growth (cfu recovered) (H. pylori strain #26695; [2]) | H. pylori growth (cfu recovered) (H. pylori strain #26695; final dilution 1:50 of stock) | H. pylori growth (cfu recovered) (H. pylori strain #26695; final dilution 1:100 of stock) | H. pylori growth (cfu recovered) (H. pylori strain #26695; final dilution 1:500 of stock) | H. pylori growth (cfu recovered) (H. pylori strain #26695; final dilution 1:1000 of stock) | H. pylori growth (cfu recovered) (H. pylori strain #26695; final dilution 1:5000 of stock) | H. pylori growth (cfu recovered) (H. pylori strain #26695; [3]) | H. pylori growth (cfu recovered) (H. pylori strain #26695; [4]) | % growth (E. coli strain AW574) [%] | also measured |
| --- | --- | --- | --- | --- | --- | --- | --- | --- | --- | --- |
| C=C(C)C1CC=C(C)C(=O)C1 (stereo not shown) [Carvone] | NG | NG | NG | NG | NG | 10^4 cfu | TNTC | TNTC | 63.00 | Relative lysis ([1]; 404 uM): 3.2%; Relative lysis ([1]; 4,040 uM): 22%; Relative lysis ([1]; 40,400 uM): 54% |
| Polysorbate-80 [reference compound] | NG* | NG | NG | 10^3 cfu | 10^4 cfu | TNTC** | TNTC | TNTC | – | Relative lysis ([1]; 80 ul Polysorbate-80): 3.2% |
| Lactobacillus | – | – | – | – | – | – | – | – | – | Efficacy (Traveler's Diarrhea): Not proven |
| Trimethropim-sulfamethoxazole [reference compound] | – | – | – | – | – | – | – | – | – | Efficacy (Traveler's Diarrhea): 70-80% protective |
| CC=Cc1ccc(OC)cc1 [Anethole] | NG | NG | NG | NG | 10^3 cfu | 10^3 cfu | TNTC | TNTC | – | – |
| CC(C)=CCC/C(C)=C/CO [Geraniol] | NG | NG | NG | NG | NG | NG | 10^2 cfu | TNTC | 54.00 | concentration that inhibited the growth of H pylori (H pylori): 2 mg/lt.; Relative lysis ([1]; 3.63 uM): 2.4%; Relative lysis ([1]; 36.3 uM): 4%; Relative lysis ([1]; 363 uM): 34%; Relative lysis ([1]; 3,630 uM): 98%; Relative lysis ([1]; 36,300 uM): 96% |
| CC(C)=CCCC(C)=CC=O [Citral] | NG | NG | NG | NG | NG | NG | NG | TNTC | – | concentration in growth media that reduced the concentration of E. coli (E. coli): more than 0.01%; concentration with bactericidal effect (E. coli; growth media): 0.08% |
| CC(=O)/C=C/C1=C(C)CCCC1(C)C [b-Ionone] | NG | NG | NG | NG | NG | NG | NG | TNTC | 84.00 | Relative lysis ([1]; 0.0308 uM): 1.3%; Relative lysis ([1]; 0.308 uM): 4.78%; Relative lysis ([1]; 3.08 uM): 23%; Relative lysis ([1]; 30.8 uM): 44%; Relative lysis ([1]; 308 uM): 52% |
